Test results from PubChem BioAssay AID2060901 (Molecular Pharmacology Branch, DTP, NCI, 2025).

Tested on: 422866-222-R5-J1-PDC complex spheroids viability
Test: Anticancer human tumor 422866-222-R5-J1-PDC patient-derived pancreatic adenocarcinoma cell line growth inhibition [RAS]
Conditions: for IC50: curve of first compound; for viability, T/C: stronger effect = lower value
Text: RAS pathway inhibitors in Combinations in Complex Spheroids
A high-throughput screen of multi-cell type tumor spheroids was designed to identify active combinations of RAS pathway inhibitors and targeted small molecules. Complex spheroids include a stromal component modeled by human endothelial cells (HUVEC) and fibroblasts modeled by human mesenchymal stem cells (MSCs). The concentration ranges selected for each drug and investigational agent were based upon clinically achievable concentrations if the clinical Cmax of the agent was known.
Compounds. The drugs and investigational agents: abemaciclib (NSC768073), cobimetinib (NSC768068), divarasib (GDC6063, NSC841802), docetaxel (NSC628503), GDC-1971 (RLY-1971, NSC841576), gemcitabine (NSC613327), inavolisib (NSC800729), ipatasertib (NSC767898), KB-0742 (NSC834161), MRTX-1133 (NSC836407), osimertinib (NSC779217), RMC-4630 (NSC839698), RMC-6236 (NSC851965), RMC-6291 (NSC852671), Ro-3306 (NSC812927), sapanisertib (NSC764658), SN-38 (NSC673596), staurosporine (NSC755774), SY5609 (NSC837396), and tovorafenib (DAY101, NSC766906), were obtained from the National Cancer Institute (NCI) Developmental Therapeutics Program Chemical Repository. The FDA-approved anticancer drug set is available from the NCI Developmental Therapeutics Program. […] The stock solutions were prepared in dimethyl sulfoxide (DMSO, Sigma-Aldrich, St. Louis, MO, cat. D2650) at 800-fold the tested concentration and stored at -70 degrees C prior to their use. All drugs and investigational agents were tested over a range starting from a high concentration at or near the clinical Cmax and decreasing in half-log increments. If the clinical Cmax for an agent had not been determined, the highest concentration tested was 10 microM.
Cell Culture. All cells were maintained in an incubator at 37 degrees C and 5% CO2 with 95% humidity. The PDC lines were cultured according to standard operating procedures established by the NCI PDMR. All PDCs were thawed and cultured in Matrigel-coated flasks prepared with a working solution of 1X Ham's F-12 nutrient mix, without supplementation (Invitrogen, Waltham, MA, cat. 11765054), 100 U/mL penicillin-streptomycin (Invitrogen, cat. 15140122), and 2.5% Matrigel (Corning Inc., Corning, NY, cat. 354248) for the first three passages. The 362531-283-R-J2-PDC and 782815-120-R-J1-PDC lines were cultured in 6C/Colon 1B media, which includes advanced DMEM/F-12 (Thermo Fisher Scientific, cat. 12634028), 10 mM HEPES (Thermo Fisher Scientific, cat. 15630080), 1X GlutaMAX supplement (Thermo Fisher Scientific, cat. 35050061), 0.1 mg/mL primocin (InvivoGen, San Diego, CA, cat. ant-pm-2), 10% defined fetal bovine serum, heat inactivated (HyClone Laboratories Inc., Logan, UT, cat. SH30070.03HI), 50% L-WRN conditioned media (ATCC, cat. CRL-3276), 1.25 mM N-Acetyl-L-cysteine (Sigma-Aldrich, cat. A9165), 10 mM nicotinamide (Sigma-Aldrich, cat. N0636), 1X B-27 supplement (Thermo Fisher Scientific, cat. 17504044), 1X N-2 supplement (Thermo Fisher Scientific, cat. 17502048), 50 ng/mL human EGF (Thermo Fisher Scientific, cat. PHG0311), and 10 microM Y-27632 dihydrochloride (Tocris Bioscience, cat. 1254). The K12877-001-R-J1-PDC line was cultured in 6I media, which includes all 6C/Colon 1B media plus 10 ng/mL human FGF-10 (PeproTech, cat. 100-26), 1 ng/mL human FGF-2 (PeproTech, cat. 100-18B), 1 µM prostaglandin E2 (Tocris Bioscience, cat. 2296), […] hydrocortisone (Sigma-Aldrich, cat. H4001), and […] bovine insulin (Sigma-Aldrich, cat. I6634). The K86415-001-R-J1-PDC line was cultured in 6D media, which includes all 6C/Colon 1B media components minus the L-WRN conditioned media. The 485176-168-R4-J1-PDC was cultured in PANC media, which includes all 6C/Colon 1B media plus 100 ng/mL human FGF-10 (PeproTech, cat. 100-26), 500 nM SB-431542 (Selleckchem, cat. S1067), and 10 nM gastrin (Tocris Bioscience, cat. 3006). […]

[1] = second compound 0.0316 µM, first compound 0.0316 µM
[2] = second compound 0.0316 µM, first compound 0.1 µM
[3] = second compound 0.0316 µM, first compound 0.316 µM
[4] = second compound 0.0316 µM, first compound 1 µM
[5] = second compound 0.1 µM, first compound 0.0316 µM
[6] = second compound 0.1 µM, first compound 0.1 µM
[7] = second compound 0.1 µM, first compound 0.316 µM
[8] = second compound 0.1 µM, first compound 1 µM
[9] = second compound 0.316 µM, first compound 0.0316 µM
[10] = second compound 0.316 µM, first compound 0.1 µM
[11] = second compound 0.316 µM, first compound 0.316 µM
[12] = second compound 0.316 µM, first compound 1 µM
[13] = second compound 1 µM, first compound 0.0316 µM
[14] = second compound 1 µM, first compound 0.1 µM
[15] = second compound 1 µM, first compound 0.316 µM
[16] = second compound 1 µM, first compound 1 µM
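For viability, T/C in this document: 100% = DMSO vehicle control viability.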

O=C(c1ccc(F)c(F)c1Nc1ccc(I)cc1F)N1CC(O)([C@@H]2CCCCN2)C1 + C#Cc1c(F)ccc2cc(O)cc(-c3ncc4c(N5CC6CCC(C5)N6)nc(OCC56CCCN5CC(F)C6)nc4c3F)c12
IC50 (second compound 0.0316 µM): 45.2 nM
IC50 (second compound 0.1 µM): 274 nM
IC50 (second compound 0.316 µM): 19.8 nM
IC50 (second compound 1 µM): 3.62 nM
IC50 (second compound 3.16 µM): < 3.16 nM
IC50 (second compound 10 µM): < 3.16 nM
viability, T/C (second compound 0.0316 µM, first compound 0.00316 µM): 70.1%
viability, T/C (second compound 0.0316 µM, first compound 0.01 µM): 82.2%
viability, T/C [1]: 52.4%
viability, T/C [2]: 47.6%
viability, T/C [3]: 41.5%
viability, T/C [4]: 44.6%
viability, T/C (second compound 0.1 µM, first compound 0.00316 µM): 81.9%
viability, T/C (second compound 0.1 µM, first compound 0.01 µM): 71.6%
viability, T/C [5]: 65.8%
viability, T/C [6]: 53.6%
viability, T/C [7]: 49.1%
viability, T/C [8]: 46.6%
viability, T/C (second compound 0.316 µM, first compound 0.00316 µM): 75.4%
viability, T/C (second compound 0.316 µM, first compound 0.01 µM): 53.2%
viability, T/C [9]: 46.7%
viability, T/C [10]: 43.2%
viability, T/C [11]: 34.9%
viability, T/C [12]: 33.3%
viability, T/C (second compound 1 µM, first compound 0.00316 µM): 50%
viability, T/C (second compound 1 µM, first compound 0.01 µM): 45.3%
viability, T/C [13]: 31.3%
viability, T/C [14]: 32.1%
viability, T/C [15]: 26.9%
viability, T/C [16]: 26.4%
viability, T/C (second compound 3.16 µM, first compound 0.00316 µM): 38.2%
viability, T/C (second compound 3.16 µM, first compound 0.01 µM): 26.1%
viability, T/C (second compound 3.16 µM, first compound 0.0316 µM): 24.6%
viability, T/C (second compound 3.16 µM, first compound 0.1 µM): 24%
viability, T/C (second compound 3.16 µM, first compound 0.316 µM): 19.9%
viability, T/C (second compound 3.16 µM, first compound 1 µM): 15.7%
viability, T/C (second compound 10 µM, first compound 0.00316 µM): 19.8%
viability, T/C (second compound 10 µM, first compound 0.01 µM): 17.8%
viability, T/C (second compound 10 µM, first compound 0.0316 µM): 17.9%
viability, T/C (second compound 10 µM, first compound 0.1 µM): 14%
viability, T/C (second compound 10 µM, first compound 0.316 µM): 12.2%
viability, T/C (second compound 10 µM, first compound 1 µM): 14.2%

CC1(O)CCCC1n1c(=O)c(C(F)F)cc2cnc(NC3CCN(S(C)(=O)=O)CC3)nc21 (centres undefined) + C=CC(=O)N1CCN(c2nc(OCC3CCCN3C)nc3c(F)c(-c4nc(N)cc(C)c4C(F)(F)F)c(Cl)cc23)C(C)C1
IC50 (second compound 0.00316 µM): < 31.6 nM
IC50 (second compound 0.01 µM): < 31.6 nM
IC50 (second compound 0.0316 µM): < 31.6 nM
IC50 (second compound 0.1 µM): < 31.6 nM
IC50 (second compound 0.316 µM): < 31.6 nM
IC50 (second compound 1 µM): < 31.6 nM
viability, T/C (second compound 0.00316 µM, first compound 0.0316 µM): 32.6%
viability, T/C (second compound 0.00316 µM, first compound 0.1 µM): 25.6%
viability, T/C (second compound 0.00316 µM, first compound 0.316 µM): 26%
viability, T/C (second compound 0.00316 µM, first compound 1 µM): 31.4%
viability, T/C (second compound 0.00316 µM, first compound 3.16 µM): 33.3%
viability, T/C (second compound 0.00316 µM, first compound 10 µM): 33.1%
viability, T/C (second compound 0.01 µM, first compound 0.0316 µM): 27.6%
viability, T/C (second compound 0.01 µM, first compound 0.1 µM): 25.8%
viability, T/C (second compound 0.01 µM, first compound 0.316 µM): 28.1%
viability, T/C (second compound 0.01 µM, first compound 1 µM): 25.4%
viability, T/C (second compound 0.01 µM, first compound 3.16 µM): 30.3%
viability, T/C (second compound 0.01 µM, first compound 10 µM): 33.9%
viability, T/C [1]: 33.6%
viability, T/C [2]: 20.7%
viability, T/C [3]: 22.5%
viability, T/C [4]: 21.6%
viability, T/C (second compound 0.0316 µM, first compound 3.16 µM): 26.5%
viability, T/C (second compound 0.0316 µM, first compound 10 µM): 24.9%
viability, T/C [5]: 18.4%
viability, T/C [6]: 19.9%
viability, T/C [7]: 22.1%
viability, T/C [8]: 23%
viability, T/C (second compound 0.1 µM, first compound 3.16 µM): 28%
viability, T/C (second compound 0.1 µM, first compound 10 µM): 29.3%
viability, T/C [9]: 21.9%
viability, T/C [10]: 20.4%
viability, T/C [11]: 23.6%
viability, T/C [12]: 23.8%
viability, T/C (second compound 0.316 µM, first compound 3.16 µM): 29.7%
viability, T/C (second compound 0.316 µM, first compound 10 µM): 35.3%
viability, T/C [13]: 20.6%
viability, T/C [14]: 20.3%
viability, T/C [15]: 23.9%
viability, T/C [16]: 23.4%
viability, T/C (second compound 1 µM, first compound 3.16 µM): 30.6%
viability, T/C (second compound 1 µM, first compound 10 µM): 40.1%
